From patent US5599813A, “Thiazolopyrimidine derivatives” (Daiichi Pharmaceutical Co., Ltd., priority 1993, dated 1997)
Where a name gives a salt, the structure may show the parent alone.

Tested on: Chorioallantoic membrance (CAM)
Assay: CAM angiogenesis Inhibition Test
Type: in vivo, chicken (4 to 5 day old fertilized egg)
Details: CAM of fertilized chicken egg, two days after; for Inhibition activity (%): 10 μl/egg in physiological saline or DMSO, 37.6° C., control vascularization settled as 100; for Judgement: class of inhibition activity, significance by Student's t-test, 2880 min
Protocol: Test was carried out by […]-Folkman's method (Nature, 297, 307 (1982)), but partially modified as described in Exp. Path. 30, 143 (1986). Chorioallantoic membrance (CAM) of 4 to 5 day old fertilized chicken egg (Babucock) was exposed. […] Vascularization (angiogenesis) of the control group was settled as 100 and the degree to the test sample was calcurated and expressed as inhibition activity. The significance of activity was determined by Student's t-test and the case over 50 % was indicated to + and the case below 50 % to i as shown in the following table.

SMILES | Inhibition activity (%) | Judgement
CCCCC1=C(C(=O)Nc2cc(F)cc(F)c2)SC2=NCCCN21.Cl [Example 39, N-(3,5-Difluorophenyl)-3-butyl-6,7-dihydro-5H-thiazolo[3,2-a]pyrimidine-2-carboxamide hydrochloride] | 32.3 | 
CCCCCCCCc1ccc(NC(=O)C2=C(CCC#N)N3CCCN=C3S2)cc1.Cl [Example 82, N-(4-Octylphenyl)-3-(2-cyanoethyl)-6,7-dihydro-5H-thiazolo-[3,2-a]pyrimidine-2-carboxamide hydrochloride] | 88.4 | + (over 50 %)
CCCC1=C(C(=O)Nc2ccc(C(C)(C)C)cc2)SC2=NCCCN21.Cl [Example 16, N-(4-tert-Butylphenyl)-3-propyl-6,7-dihydro-5H-thiazolo[3,2-a]pyrimidine-2-carboxamide hydrochloride] | 57.1 | + (over 50 %)
CCCC1=C(C(=O)Nc2cc(Cl)cc(Cl)c2)SC2=NCCCN21 [Example 13, N-(3,5-dichlorophenyl)-3-propyl-6,7-dihydro-5H-thiazolo[3,2a-]pyrimidine-2-carboxamide hydrochloride] | 76.5 | + (over 50 %)
CCCC1=C(C(=O)Nc2ccc(SCCCCCC(=O)O)cc2)SC2=NCCCN21.Cl [Example 90, N-[4-(5-Carboxypentylthio)phenyl]-3-propyl-6,7-dihydro-5H-thiazolo[3,2-a]pyrimidine-2-carboxamide hydrochloride] | 93.2 | + (over 50 %)
CCCCCCCCc1ccc(NC(=O)C2=C(CCC)N3CCCN=C3S2)cc1.Cl [Example 19, N-(4-n-Octylphenyl)-3-propyl-6,7-dihydro-5H-thiazolo[3,2-a]-pyrimidine-2-carboxamide hydrochloride] | 69.3 | + (over 50 %)
Cl.O=C(Nc1cc(Cl)cc(Cl)c1)C1=C(C2CCCC2)N2CCCN=C2S1 [Example 9, N-(3,5-Dichlorophenyl)-3-cyclopentyl-6,7-dihydro-5H-thiazolo[3,2-a]pyrimidine-2-carboxamide hydrochloride] | 37.2 | 
O=C(O)COC1=C(C(=O)Nc2cc(Cl)cc(Cl)c2)SC2=NCCCN21 [Example 114, N-(3,5-Dichlorophenyl)-3-carboxymethyloxy-6,7-dihydro-5H-thiazolo[3,2-a]pyrimidine-2-carboxamide] | 94.3 | + (over 50 %)
CCCCCCCCc1ccc(NC(=O)C2=C(C3CCC3)N3CCCN=C3S2)cc1.Cl [Example 8, N-(4-Octylphenyl)-3-cyclobutyl-6,7-dihydro-5H-thiazolo[3,2-a]pyrimidine-2-carboxamide hydrochloride] | 82.7 | + (over 50 %)
Cl.O=C(Nc1cc(Cl)cc(Cl)c1)C1=C(C2CCC2)N2CCCN=C2S1 [Example 2, N-(3,5-Dichlorophenyl)-3-cyclobutyl-6,7-dihydro-5H-thiazolo[3,2-a]pyrimidine-2-carboxamide hydrochloride] | 82.5 | + (over 50 %)
